Measurements published in patent US10450311B2, “Pesticidally active heterocyclic derivatives with sulphur containing substituents” (Syngenta Participations AG, priority 2014, dated 2019).

Assays:
Assay type in all cases: in vivo
[1] = tested on: Aedes aegypti (Yellow Fever Mosquito); assay: whole plant or invertebrate; conditions: 48 h, test rate of 5 ppm, L2 larvae in 96-well plates, incubation period of 2 days, read-out: effect in at least one of the two categories (mortality or growth inhibition)
Protocol: Example B14: Activity Against Aedes aegypti (Yellow Fever Mosquito)
10 to 15 Aedes larvae (L2) together with a nutrition mixture were placed in 96-well microtiter plates. Test compounds were pipetted into the wells. After an incubation period of 2 days insects were assessed for mortality and growth inhibition.

[2] = tested on: Myzus persicae (Green Peach Aphid); assay: Activity against Myzus persicae, sprayed sunflower leaf discs; conditions: foliar, 144 h, application rate of 200 ppm, aphid population of mixed ages on sunflower leaf discs, 6 days after infestation
Protocol: Example B5: Activity Against Myzus persicae (Green Peach Aphid)
(§1) Sunflower leaf discs were placed on agar in a 24-well microtiter plate and sprayed with aqueous test solutions prepared from 10′000 ppm DMSO stock solutions. After drying, the leaf discs were infested with an aphid population of mixed ages. The samples were assessed for mortality 6 days after infestation.

[3] = tested on: Spodoptera littoralis (Egyptian Cotton Leaf Worm); assay: Activity against Spodoptera littoralis, compound in agar taken up by lettuce; conditions: 144 h, test rate of 12.5 ppm, lettuce root uptake, 6 days after infestation, read-out: effect in at least one of the three categories (mortality, anti-feedancy, or growth inhibition)
Excerpt: Example B10: Activity Against Spodoptera littoralis (Egyptian Cotton Leaf Worm)
(§2) Test compounds were applied by pipette from 10′000 ppm DMSO stock solutions into 24-well plates and mixed with agar. Lettuce seeds were placed on the agar and the multi well plate was closed by another plate which contains also agar. After 7 days the roots have absorbed the compound and the lettuce has grown into the lid plate. The lettuce leafs were now cut off into the lid plate. Spodoptera eggs were pipetted through a plastic stencil on a humid gel blotting paper and the plate closed with it. The samples were assessed for mortality, anti-feedant effect and growth inhibition in comparison to untreated samples 6 days after infestation.

[4] = tested on: Spodoptera littoralis (Egyptian Cotton Leaf Worm); assay: Activity against Spodoptera littoralis, systemic activity; conditions: 144 h, test rate of 12.5 ppm, in agar, lettuce root uptake, 6 days after infestation
Excerpt: Example B11: Activity Against Spodoptera littoralis (Egyptian Cotton Leaf Worm), Systemic Activity
as §2, with “mortality” for “mortality, anti-feedant effect and growth inhibition in comparison to untreated samples”

[5] = tested on: Spodoptera littoralis (Egyptian Cotton Leaf Worm); assay: Activity against Spodoptera littoralis, sprayed cotton leaf discs; conditions: foliar, 72 h, application rate of 200 ppm, L1 larvae on cotton leaf discs, 3 days after infestation, read-out: control (at least one of mortality, anti-feedant effect, growth inhibition)
Protocol: Example B9: Activity Against Spodoptera littoralis (Egyptian Cotton Leaf Worm)
Cotton leaf discs were placed on agar in 24-well microtiter plates and sprayed with aqueous test solutions prepared from 10′000 ppm DMSO stock solutions. After drying the leaf discs were infested with five L1 larvae. The samples were assessed for mortality, anti-feedant effect, and growth inhibition in comparison to untreated samples 3 days after infestation. Control of Spodoptera littoralis by a test sample is when at least one of mortality, anti-feedant effect, and growth inhibition is higher than the untreated sample.

[6] = tested on: Bemisia tabaci (Cotton White Fly); assay: Activity against Bemisia tabaci, sprayed cotton leaf discs; conditions: foliar, 144 h, application rate of 200 ppm, adult white flies on cotton leaf discs, 6 days after incubation
Protocol: Example B1: Activity Against Bemisia tabaci (Cotton White Fly)
Cotton leaf discs were placed on agar in 24-well microtiter plates and sprayed with aqueous test solutions prepared from 10′000 ppm DMSO stock solutions. After drying the leaf discs were infested with adult white flies. The samples were checked for mortality 6 days after incubation. […] A35, A36 and A47. A1. A2, A3, A8, A10, A14 and A12.

[7] = tested on: Diabrotica balteata (Corn Root Worm); assay: Activity against Diabrotica balteata, sprayed maize sprouts; conditions: 96 h, application rate of 200 ppm, larvae on maize sprouts, 4 days after infestation
Protocol: Example B2: Activity Against Diabrotica balteata (Corn Root Worm)
Maize sprouts, placed on an agar layer in 24-well microtiter plates were treated with aqueous test solutions prepared from 10′000 ppm DMSO stock solutions by spraying. After drying, the plates were infested with […] (6 to 10 per well). The samples were assessed for mortality 4 days after infestation.

[8] = tested on: Plutella xylostella (Diamond Back Moth); assay: Activity against Plutella xylostella, treated artificial diet; conditions: 120 h, application rate of 200 ppm, L2 larvae on artificial diet, 5 days after infestation, read-out: effect in at least one of the two categories (mortality or growth inhibition)
Protocol: Example B8: Activity Against Plutella xylostella (Diamond Back Moth)
24-well microtiter plates with artificial diet were treated with aqueous test solutions prepared from 10′000 ppm DMSO stock solutions by pipetting. After drying, the plates were infested with L2 larvae (10 to 15 per well). The samples were assessed for mortality and growth inhibition in comparison to untreated samples 5 days after infestation.

[9] = tested on: Euschistus heros (Neotropical Brown Stink Bug); assay: Activity against Euschistus heros, sprayed soybean leaf; conditions: 120 h, application rate of 200 ppm, N-2 nymphs on soybean leaf, 5 days after infestation
Protocol: Example B3: Activity Against Euschistus heros (Neotropical Brown Stink Bug)
Soybean leaf on agar in 24-well microtiter plates were sprayed with aqueous test solutions prepared from 10′000 ppm DMSO stock solutions. After drying the leaf were infested with N-2 nymphs. The samples were assessed for mortality 5 days after infestation.

[10] = tested on: Myzus persicae (Green Peach Aphid); assay: Activity against Myzus persicae, sucrose solution under Parafilm; conditions: 120 h, test rate of 12 ppm, mixed with sucrose solution, 5 days after infestation
Excerpt: Example B7: Activity Against Myzus persicae (Green Peach Aphid)
Test compounds from 10′000 ppm DMSO stock solutions were applied by pipette into 24-well microtiter plates and mixed with sucrose solution. The plates were closed with a stretched Parafilm. A plastic stencil with 24 holes was placed onto the plate and infested pea seedlings were placed directly on the Parafilm. The infested plate was closed with a gel blotting paper and another plastic stencil and then turned upside down. The samples were assessed for mortality 5 days after infestation. […] A30 and A32.

[11] = tested on: Myzus persicae (Green Peach Aphid); assay: Activity against Myzus persicae, roots of infested pea seedlings in test solution; conditions: 144 h, test rate of 24 ppm, 6 days
Protocol: Example B6: Activity Against Myzus persicae (Green Peach Aphid)
Roots of pea seedlings infested with an aphid population of mixed ages were placed directly in the aqueous test solutions prepared from 10′000 DMSO stock solutions. The samples were assessed for mortality 6 days after placing seedlings in test solutions.

[12] = tested on: Frankliniella occidentalis (Western Flower Thrips); assay: Activity against Frankliniella occidentalis, sprayed sunflower leaf discs; conditions: foliar, 168 h, application rate of 200 ppm, population of mixed ages on sunflower leaf discs, 7 days after infestation
Protocol: Example B4: Activity Against Frankliniella occidentalis (Western Flower Thrips)
as §1, with “in” for “in a”, “plates” for “plate”, “[…]” for “10′000 ppm”, “drying” for “drying,”, “a Frankliniella” for “an aphid”, “7” for “6”

[13] = tested on: Thrips tabaci (Onion Thrips); assay: Activity against Thrips tabaci, feeding/contact activity; conditions: foliar, 144 h, application rate of 200 ppm, thrips population of mixed ages on sunflower leaf discs, 6 days after infestation
Protocol: Example B13: Activity Against Thrips tabaci (Onion Thrips) Feeding/Contact Activity
as §1, with “in” for “in a”, “plates” for “plate”, “drying” for “drying,”, “a thrips” for “an aphid”

CCn1c(C(F)(F)F)cc2nc(-c3ncc(Br)cc3S(=O)(=O)CC)n(C)c2c1=O [Compound A31, 2-(5-bromo-3-ethylsulfonyl-2-pyridyl)-5-ethyl-3-methyl-6-(trifluoromethyl)imidazo[4,5-c]pyridin-4-one]
≥ 80%: percent effect (mortality or growth inhibition) at 5 ppm [1] | mortality at 200 ppm [2] | percent control (mortality, anti-feedancy or growth inhibition) at 12.5 ppm [3] | mortality at 12.5 ppm [4] | percent control (mortality, anti-feedant effect or growth inhibition) at 200 ppm [5] | mortality at 200 ppm [6] | mortality at 200 ppm [7] | percent effect (mortality or growth inhibition) at 200 ppm [8] | mortality at 200 ppm [9]

CCSc1cc(C(F)(F)F)cnc1-c1nc2cc(C(F)(F)F)c(=O)n(C)c2n1C [Compound B1, 2-[3-ethylsulfanyl-5-(trifluoromethyl)-2-pyridyl]-3,4-dimethyl-6-(trifluoromethyl)imidazo[4,5-b]pyridin-5-one]
≥ 80%: mortality at 200 ppm [2] | mortality at 12 ppm [10]

CCS(=O)(=O)c1cc(C(F)(F)F)cnc1-c1nc2cc(C(F)(F)F)c(=O)n(C)c2n1C [Compound B2, 2-[3-ethylsulfonyl-5-(trifluoromethyl)-2-pyridyl]-3,4-dimethyl-6-(trifluoromethyl)imidazo[4,5-b]pyridin-5-one]
≥ 80%: mortality at 200 ppm [2] | mortality at 24 ppm [11] | mortality at 200 ppm [6] | mortality at 12 ppm [10] | mortality at 200 ppm [7] | mortality at 200 ppm [9]

CCS(=O)(=O)c1cc(C(F)(F)F)cnc1-c1nc2cc(C(F)(F)F)n(Cc3ccccc3)c(=O)c2n1C [Compound A4, 5-benzyl-2-[3-ethylsulfonyl-5-(trifluoromethyl)-2-pyridyl]-3-methyl-6-(trifluoromethyl)imidazo[4,5-c]pyridin-4-one]
≥ 80%: percent control (mortality, anti-feedant effect or growth inhibition) at 200 ppm [5] | mortality at 12 ppm [10] | mortality at 200 ppm [7] | percent effect (mortality or growth inhibition) at 200 ppm [8]

CCn1c(C(F)(F)F)cc2nc(-c3ncc(-c4ccc(C(F)(F)F)cc4)cc3S(=O)(=O)CC)n(C)c2c1=O [Compound A35, 5-ethyl-2-[3-ethylsulfonyl-5-[4-(trifluoromethyl)phenyl]-2-pyridyl]-3-methyl-6-(trifluoromethyl)imidazo[4,5-c]pyridin-4-one]
≥ 80%: mortality at 200 ppm [2] | mortality at 12.5 ppm [4] | percent control (mortality, anti-feedant effect or growth inhibition) at 200 ppm [5] | mortality at 200 ppm [6] | mortality at 200 ppm [7] | percent effect (mortality or growth inhibition) at 200 ppm [8] | mortality at 200 ppm [9]

CCS(=O)(=O)c1cc(C2CC2)cnc1-c1nc2cc(C(F)(F)F)n(C)c(=O)c2n1C [Compound A23]
≥ 80%: percent effect (mortality or growth inhibition) at 5 ppm [1] | mortality at 200 ppm [2] | mortality at 200 ppm [12] | mortality at 24 ppm [11] | mortality at 12.5 ppm [4] | percent control (mortality, anti-feedant effect or growth inhibition) at 200 ppm [5] | mortality at 200 ppm [7] | percent effect (mortality or growth inhibition) at 200 ppm [8] | mortality at 200 ppm [9]

CCS(=O)(=O)c1cc(C(F)(F)C(F)(F)F)cnc1-c1nc2cc(C(F)(F)F)n(C)c(=O)c2n1C [Compound A46, 2-[3-ethylsulfonyl-5-(1,1,2,2,2-pentafluoroethyl)-2-pyridyl]-3,5-dimethyl-6-(trifluoromethyl)imidazo[4,5-c]pyridin-4-one]
≥ 80%: percent effect (mortality or growth inhibition) at 5 ppm [1] | mortality at 200 ppm [2] | percent control (mortality, anti-feedancy or growth inhibition) at 12.5 ppm [3] | mortality at 200 ppm [12] | mortality at 12.5 ppm [4] | percent control (mortality, anti-feedant effect or growth inhibition) at 200 ppm [5] | mortality at 200 ppm [7] | mortality at 200 ppm [13] | percent effect (mortality or growth inhibition) at 200 ppm [8] | mortality at 200 ppm [9]

CCn1c(C(F)(F)F)cc2nc(-c3ncc(C(F)(F)F)cc3S(=O)(=O)CC)n(C)c2c1=O [Compound A2]
≥ 80%: percent effect (mortality or growth inhibition) at 5 ppm [1] | mortality at 200 ppm [2] | percent control (mortality, anti-feedant effect or growth inhibition) at 200 ppm [5] | mortality at 200 ppm [6] | mortality at 200 ppm [7] | percent effect (mortality or growth inhibition) at 200 ppm [8] | mortality at 200 ppm [9]

CCS(=O)(=O)c1cc(C(F)(F)F)ccc1-c1nc2cc(C(F)(F)F)n(C)c(=O)c2n1C [Compound A73, 2-[2-ethylsulfonyl-4-(trifluoromethyl)phenyl]-3,5-dimethyl-6-(trifluoromethyl)imidazo[4,5-c]pyridin-4-one]
≥ 80%: percent effect (mortality or growth inhibition) at 5 ppm [1] | mortality at 200 ppm [2] | percent control (mortality, anti-feedancy or growth inhibition) at 12.5 ppm [3] | mortality at 24 ppm [11] | mortality at 12.5 ppm [4] | percent control (mortality, anti-feedant effect or growth inhibition) at 200 ppm [5] | mortality at 200 ppm [7] | percent effect (mortality or growth inhibition) at 200 ppm [8] | mortality at 200 ppm [9]
